# Reference: US10342874B2, “Glucosamine peptide compounds for treating liver metabolic disorders” (Far Eastern Memorial Hospital, priority 2017, dated 2019)
# Key:
# [1] = system: C57BL/6JNarl male mice fed with high fat diet; assay: Analysis of liver tissue fibrosis (Masson's Trichrome, collagen proportionate area); assay type: in vivo; details: HFD mice; for percentage of collagen proportionate area (CPA) in liver tissue: 2 mg/kg intraperitoneal, compared with Group 2 (HFD)
# Procedure: (§1) 24 C57BL/6JNarl male mice at 5 weeks of age were purchased from the National Laboratory Animal Center and housed in the laboratory animal room of the Far Eastern Memorial Hospital at a constant temperature of 22° C., 55% humidity, automatic air regulation (ventilation rate of 12 times per hour), automatic light control (12:12 hour light/dark cycle), and provided with free access to water and chow diet D12450B (Research Diets, Inc.) for two weeks.
# (§2) Then the 24 mice (7 weeks of age) were randomly divided into four groups, each containing six mice—Group 1 is the chow diet (CD) control group fed with chow diet D12450B; Group 2 is the high fat diet (HFD) group fed with high fat diet (i.e., modified D12492); Group 3 is the HFD+Compound A treatment group provided with high fat diet and Compound A; and Group 4 is the HFD+Compound B treatment group provided with high fat diet and Compound B. […]
# Nuance multispectral image analysis module (PerknElmer, Inc) was used to quantify the collagen proportionate area (CPA), as shown in FIG. 6E. […]
# [2] = system: C57BL/6JNarl male mice fed with high fat diet; assay: Analysis of fat amount in liver tissue (H&E stain, Image J); assay type: in vivo; details: HFD mice; for percentage of area of lipid droplets relative to the total field of view in liver tissue: 2 mg/kg intraperitoneal, compared with Group 2 (HFD)
# Procedure: as §1, §2
# Image J was used to quantify the percentage of area of lipid droplets relative to the total field of view in mice liver tissues (FIG. 5E). […]
# HuH-7 cells = assay: Oleic acid-induced in vitro fatty liver cell model, lipid droplets by Oil Red O staining quantified by Image J; assay type: cell-based, human
# Procedure: (§3) Another human hepatocellular carcinoma cell line HuH-7 was used to test the temporal effect of Compound A to further confirm the effect of Compound A on intracellular lipid droplets. Similar to Example 2, to induce in vitro fatty liver cell model on HuH-7 with oleic acid, HuH-7 cells were cultured in a 24-well plate at a cell volume of 8×10^4 and added with 0.1 mM of oleic acid for 24-hour culturing. After the replacement of culture medium containing oleic acid, 10 μg/mL of Compound A was added to DMEM for culturing for 4 hours, 8 hours, 16 hours, and 24 hours; each time point performed four repetitions. ORO staining was used to confirm the level of lipid droplets in HuH-7, and their number and size were quantified by Image J.
# [3] = system: C57BL/6JNarl male mice fed with high fat diet; assay: Blood biochemistry of fatty liver mice; assay type: in vivo; details: HFD mice; for aspartate transaminase (AST) and alanine transaminase (ALT) compared with Group 2: 2 mg/kg, statement in words; for ALT / AST / GLU / T-CHO / TG: serum, 2 mg/kg intraperitoneal, six injections in two weeks, mean ± SD, six mice
# Procedure: as §1
# (§4) Then the 24 mice (7 weeks of age) were randomly divided into four groups, each containing six mice—Group 1 is the chow diet (CD) control group fed with chow diet D12450B; Group 2 is the high fat diet (HFD) group fed with high fat diet (i.e., modified D12492); Group 3 is the HFD+Compound A treatment group provided with high fat diet and Compound A; and Group 4 is the HFD+Compound B treatment group provided with high fat diet and Compound B.
# (§5) Group 1 was fed with chow diet for 18 weeks, followed by 2 more weeks of chow diet, and then given an intraperitoneal injection of saline, without receiving Compound A or Compound B. Group 2, the HFD group, was fed with high fat diet for 18 weeks, followed by 2 more weeks of high fat diet, and then given an intraperitoneal injection of saline, without receiving Compound A or Compound B. Group 3, the HFD+Compound A treatment group, was fed with high fat diet for 18 weeks and then given an intraperitoneal injection of 2 mg/kg of Compound A per mouse, three times a week (once every one or two days) for two weeks, a total of six injections of Compound A. Group 4, the HFD+Compound B treatment group, was fed with high fat diet for 18 weeks and then given an intraperitoneal injection of 2 mg/kg of Compound B per mouse, three times a week (once every one or two days) for two weeks, a total of six injections of Compound B. After completion of feeding and treatment described above, the mice were weighed and euthanized with CO2, and their blood and liver tissue specimens were collected for analysis.
# Blood samples from mice of each group in Example 4 were tested for measurement of serum aspartate transaminase (AST), alanine transaminase (ALT), total cholesterol (T-CHO), triglyceride (TG) and glucose (GLU). AST and ALT are common measures of liver function.
# HepG2 cells = assay: Oleic acid-induced in vitro fatty liver cell model, lipid droplets by Oil Red O staining quantified by Image J; assay type: cell-based, human; details: for lipid droplet accumulation: HepG2, 10 nM compound for 24 hours
# Procedure: Human hepatocellular carcinoma cell line HepG2 was cultured in Dulbecco's modified Eagle's medium (DMEM, containing 4,500 mg/L D-glucose and L-glutamine) supplemented with 10% fetal bovine serum and 1% penicillin/streptomycin at 37° C. incubator with 5% CO2. To induce in vitro fatty liver cell model on HepG2 with oleic acid-bovine serum albumin complex (Sigma-Aldrich, USA), HepG2 cells were cultured in a 24-well plate at a cell volume of 8×10^4; after 18 to 24 hours when a 70% confluence of cell growth has reached, 0.1 mM of oleic acid was added for culturing for 24 hours. After the replacement of culture medium containing oleic acid, 0.5 μg/mL, 1 μg/mL, 2.5 μg/mL, 5 μg/mL and 10 μg/mL of Compound A were added to DMEM containing 2% fetal bovine serum for culturing for 8 hours; each experimental group performed four repetitions.
# Oil Red O (ORO) staining was used to confirm the level of lipid droplets, e.g., amount of red particles, in HepG2. After 24 hours of oleic acid treatment, HepG2 cells were fixed with 4% paraformaldehyde for 15 minutes, followed by phosphate-buffered saline (PBS) washing for three times and then ORO staining for 1 hour. After staining, the cells were washed with PBS for three times, followed by hematoxylin staining for 5 minutes. The coverslip was reversely placed on the slide and sealed with glycerine for observation with optical microscope; images were taken and saved as electronic files.
# Intracellular lipid droplets were quantified by Image J (National Institutes of Health, NIH) after adjustment to a proper threshold value. Images with at least 20 cells were analyzed and quantified by Image J with the “analyze particles” functions in threshold single sections with size (pixel^2) setting from 0.1 to 10.
# as §3, with “Similar” for “Another human hepatocellular carcinoma cell line HuH-7 was used to test the temporal effect of Compound A to further confirm the effect of Compound A on intracellular lipid droplets. Similar”, “1,” for “2,”, “HepG2” for “HuH-7”, “HepG2,” for “HuH-7,”
# Compound C, which is a derivative of Compound A, was also tested to further investigate the effect of glucosamine peptide compounds defined herein, including Compound A and its derivatives, on the formation of intracellular lipid droplets. Similar to Example 2, to induce in vitro fatty liver cell model on HepG2 with oleic acid, HepG2 cells were cultured in a 24-well plate at a cell volume of 8×10^4 and added with 0.1 mM of oleic acid for 24-hour culturing. After the replacement of culture medium containing oleic acid, 10 nM of Compound A and 10 nM of Compound C were individually added to different DMEMs for culturing for 24 hours, and four repetitions were performed for both Compound A and Compound C. ORO staining was used to confirm the level of lipid droplets in HepG2, and their number and size were quantified by Image J.
# [4] = system: C57BL/6JNarl male mice fed with high fat diet; assay: Fatty liver animal test: liver appearance and liver weight; assay type: in vivo; details: HFD mice, 2 mg/kg intraperitoneal, three times a week for two weeks; compared with Group 2 (HFD)
# Procedure: as §1, §4, §5
Compound,percentage of collagen proportionate area (CPA) in liver tissue [1],percentage of area of lipid droplets relative to the total field of view in liver tissue [2],aspartate transaminase (AST) and alanine transaminase (ALT) compared with Group 2 [3],ALT [3] [U/L],AST [3] [U/L],GLU [3] [mg/dL],T-CHO [3] [mg/dL],TG [3] [mg/dL],lipid droplet accumulation (HepG2 cells),liver appearance (size) [4],further results
CC(=O)N[C@@H]1[C@@H](O[C@H](C)C(=O)N[C@@H](C)C(=O)N[C@H](CCC(=O)O)C(N)=O)[C@H](O)[C@@H](CO)O[C@H]1O [Compound A],much lower percentage of collagen proportionate area than Group 2,much lower percentage of area of lipid droplets relative to the total field of view than Group 2,significantly lower,240.5 ± 83.1,200.0 ± 68.4,287.2 ± 60.0,225.3 ± 53.2,30.1 ± 9.8,reduced significantly,smaller livers than Group 2,"treatment time after which significant reduction of lipid droplets is observed (HuH-7 cells; HuH-7, 10 μg/mL): 4 h; treatment time at which maximum reduction of lipid droplets occurs (HuH-7 cells; HuH-7, 10 μg/mL): 16 h; number and size of lipid droplets (HuH-7 cells; HuH-7, 10 μg/mL compound for 4, 8, 16 and 24 hours): decrease with the increase of treatment time of Compound A in a time-dependent manner; treatment time after which significant reduction of lipid droplets is observed (HepG2 cells; HepG2, 10 μg/mL): 4 h; treatment time at which maximum reduction of lipid droplets occurs (HepG2 cells; HepG2, 10 μg/mL): 8 h; number and size of lipid droplets (HepG2 cells; HepG2, 10 μg/mL compound for 4, 8, 16 and 24 hours): decrease with the increase of treatment time of Compound A in a time-dependent manner; number and size of lipid droplets (HepG2 cells; HepG2, 0.1 mM oleic acid 24 h, then 0.5-10 μg/mL compound for 8 hours): decrease with the increase of Compound A concentration in a dose-dependent manner"
CCCCOC(=O)[C@@H](CCC(N)=O)NC(=O)[C@H](C)NC(=O)[C@@H](C)OC1C(NC(C)=O)[C@@H](O)OC(CO)[C@H]1O (stereo partly shown) [Compound C],–,–,–,–,–,–,–,–,reduced significantly,–,–
CCCCCCCCCCCCCCCC(=O)OCC(COP(=O)(O)OCCNC(=O)[C@H](C)NC(=O)CC[C@@H](NC(=O)[C@H](C)NC(=O)C(C)O[C@H]1[C@H](O)[C@@H](CO)OC(O)[C@@H]1NC(C)=O)C(N)=O)OC(=O)CCCCCCCCCCCCCCC (stereo partly shown) [Compound B],much lower percentage of collagen proportionate area than Group 2,much lower percentage of area of lipid droplets relative to the total field of view than Group 2,significantly lower,185.4 ± 83.1,191.3 ± 74.0,274.4 ± 31.0,234.0 ± 33.6,42.2 ± 18.9,–,smaller livers than Group 2,"alleviating liver fibrosis complicated with fatty liver, comparison of the compounds ([1]; Group 4 compared with Group 3): more effective than Compound A; alleviating accumulation of hepatic fat induced by high fat diet, comparison of the compounds ([2]; Group 4 compared with Group 3): more effective than Compound A; average liver weight [4]: less than Group 2; ratio of liver weight to body weight (average liver weight percentage) [4]: smaller average liver weight percentage than Group 2"
